Experimental data published in patent publication US11629171B2, “Beta-hairpin peptidomimetics” (POLYPHOR AG, priority 2017, dated 2023).
≈ marks a conversion by molar mass, not a printed value. Where a SMILES comes first, the peptide text is derived from it. Bridges are numbered along the chain shown (N, C = ends). Roman numbers before positions name the chains, in order. [ ]: non-standard residue; d: D form. Thr(ol) = C[C@@H](O)[C@H](N)CO; pGlu = O=C1CC[C@@H](C(=O)O)N1; Tle = CC(C)(C)[C@H](N)C(=O)O; dDab = NCC[C@@H](N)C(=O)O; hSer = N[C@@H](CCO)C(=O)O; Orn = NCCC[C@H](N)C(=O)O; Dab = NCC[C@H](N)C(=O)O; Nva = CCC[C@H](N)C(=O)O; Dap = NC[C@H](N)C(=O)O

Experiments:
Assay type in all cases: cell-based
[1] = test system: Enterobacter cloacae 848840; conditions: 848840
How it was run: (§1)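 MIC in μg/mL, read as absence of visible growth after 18-20 h incubation at 35° C, by standard CLSI microdilution. Peptides tested in two-fold serial dilution in cation-adjusted MH-II broth containing 0.002% (final) Polysorbate 80, against roughly 10^6 CFU/mL inocula.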

[2] = test system: Acinetobacter baumannii DSM 30008; conditions: DSM 30008
How it was run: as §1

[3] = test system: Pseudomonas aeruginosa ATCC 27853; conditions: ATCC 27853
How it was run: as §1

[4] = test system: Escherichia coli ATCC 25922; conditions: ATCC 25922
How it was run: as §1

[5] = test system: Klebsiella pneumoniae SSI #3010; conditions: SSI #3010
How it was run: as §1

[6] = test system: Acinetobacter baumannii 872842; conditions: 872842
How it was run: as §1

[7] = test system: Klebsiella pneumoniae 968733; conditions: 968733
How it was run: as §1

Escherichia coli 926415 = conditions: 926415
How it was run: as §1

[8] = test system: human red blood cells (hRBC); test: Hemolysis; conditions: red cells of human, 1 h, 200
How it was run: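 Hemoglobin release from PBS-washed hRBC at 20% (v/v), incubated 1 h at 37° C with peptides at 200 μg/mL, is measured at 540 nm. Values are blank corrected and given as a fraction of Triton X-100 lysis × 100%.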

Structure (SMILES) | MIC [1] | Acinetobacter baumannii DSM 30008 MIC [2] | Pseudomonas aeruginosa ATCC 27853 MIC [3] | Escherichia coli ATCC 25922 MIC [4] | Klebsiella pneumoniae SSI #3010 MIC [5] | MIC [6] | MIC [7] | MIC (Escherichia coli 926415) | Hemolysis at 200 μg/mL [8] | MIC [2] | MIC [3] | MIC [4] | MIC [5]
CC(=O)N[C@H](C(=O)N[C@H]1CSSC[C@@H](C(=O)N[C@@H](CO)C(N)=O)NC(=O)[C@H](C(C)C)NC(=O)[C@H](Cc2c[nH]cn2)NC(=O)[C@H](Cc2c[nH]c3ccccc23)NC(=O)[C@H](CO)NC(=O)[C@@H](CCN)NC(=O)[C@H](CCC(=O)N[C@@H](CCN)C(=O)N[C@H](C(=O)N[C@@H](CN)C(=O)N[C@H]2CCNC(=O)[C@H]([C@@H](C)O)NC(=O)[C@H](CCN)NC(=O)[C@H](CCN)NC(=O)[C@H](CC(C)C)NC(=O)[C@@H](CC(C)C)NC(=O)[C@H](CCN)NC2=O)[C@@H](C)O)NC(=O)[C@H](CCN)NC(=O)[C@H](Cc2ccc(O)cc2)NC1=O)C(C)C [Ex. 329] (I: Ac-VCY[Dab]E[dDab]SWHVCS-NH2 / II: [Dab]T[Dap][Dab][Dab][dL]L[Dab][Dab]T; disulfide I:2-I:11; amide I:5-II:N; lactam II:4-II:C) | 0.125 µg/mL (≈ 0.051 µM) | 0.0625 µg/mL | 0.125 µg/mL | 0.0625 µg/mL | 0.125 µg/mL | 0.125 µg/mL (≈ 0.051 µM) | 0.25 µg/mL (≈ 0.102 µM) | 0.125 µg/mL (≈ 0.051 µM) | <1% |  |  |  | 
CCC[C@@H]1NC(=O)[C@H](CO)NC(=O)[C@H](Cc2c[nH]c3ccccc23)NC(=O)[C@H](CCN)NC(=O)[C@@H](CCN)NC(=O)[C@H](CCC(=O)N[C@@H](CCN)C(=O)N[C@H](C(=O)N[C@@H](CN)C(=O)N[C@H]2CCNC(=O)[C@H]([C@@H](C)O)NC(=O)[C@H](CCN)NC(=O)[C@H](CCN)NC(=O)[C@H](CC(C)C)NC(=O)[C@@H](CC(C)C)NC(=O)[C@H](CCN)NC2=O)[C@@H](C)O)NC(=O)[C@H](CO)NC(=O)[C@H](Cc2ccc(O)cc2)NC(=O)[C@@H](NC(=O)[C@@H](NC(C)=O)C(C)C)CSSC[C@@H](C(=O)N[C@@H](CO)C(N)=O)NC1=O [Ex. 264] (I: Ac-VCYSE[dDab][Dab]WS[Nva]CS-NH2 / II: [Dab]T[Dap][Dab][Dab][dL]L[Dab][Dab]T; disulfide I:2-I:11; amide I:5-II:N; lactam II:4-II:C) | 0.5 µg/mL (≈ 0.208 µM) |  |  |  |  | 0.0625 µg/mL (≈ 0.0261 µM) | 0.125 µg/mL (≈ 0.0521 µM) | 0.125 µg/mL (≈ 0.0521 µM) | <1% | 0.0625 µg/mL (≈ 0.0261 µM) | 0.25 µg/mL (≈ 0.104 µM) | 0.03125 µg/mL (≈ 0.013 µM) | 0.125 µg/mL (≈ 0.0521 µM)
CC[C@H](C)[C@H](NC(C)=O)C(=O)N[C@H]1CCCNC(=O)[C@@H]([C@H](C)O)NC(=O)[C@H](C(C)(C)C)NC(=O)[C@H](CO)NC(=O)[C@H](Cc2c[nH]c3ccccc23)NC(=O)[C@H](CCO)NC(=O)[C@@H](CCN)NC(=O)[C@H](CCC(=O)N[C@@H](CCN)C(=O)N[C@H](C(=O)N[C@@H](CN)C(=O)N[C@H]2CCNC(=O)[C@H]([C@@H](C)O)NC(=O)[C@H](CCN)NC(=O)[C@H](CCN)NC(=O)[C@H](CC(C)C)NC(=O)[C@@H](CC(C)C)NC(=O)[C@H](CCN)NC2=O)[C@@H](C)O)NC(=O)[C@H](CN)NC(=O)[C@H](Cc2ccc(O)cc2)NC1=O [Ex. 32] (I: Ac-I[Orn]Y[Dap]E[dDab][hSer]WS[Tle][dT] / II: [Dab]T[Dap][Dab][Dab][dL]L[Dab][Dab]T; lactam I:2-I:C, II:4-II:C; amide I:5-II:N) | 0.125 µg/mL (≈ 0.0536 µM) |  |  |  |  | 0.0625 µg/mL (≈ 0.0268 µM) | 0.25 µg/mL (≈ 0.107 µM) | 0.0625 µg/mL (≈ 0.0268 µM) | <1% | 0.0625 µg/mL (≈ 0.0268 µM) | 0.25 µg/mL (≈ 0.107 µM) | 0.0625 µg/mL (≈ 0.0268 µM) | 0.125 µg/mL (≈ 0.0536 µM)
CC(C)C[C@@H]1NC(=O)[C@@H](CC(C)C)NC(=O)[C@H](CCN)NC(=O)[C@@H](NC(=O)[C@H](CCN)NC(=O)[C@@H](NC(=O)[C@H](CCN)NC(=O)CC[C@@H]2NC(=O)[C@H](CCN)NC(=O)[C@H](Cc3ccc(O)cc3)NC(=O)[C@@H](NC(=O)[C@@H]3CCC(=O)N3)CSSC[C@@H](C(=O)N[C@H](CO)[C@@H](C)O)NC(=O)[C@H](C(C)(C)C)NC(=O)[C@H](CO)NC(=O)[C@H](Cc3c[nH]c4ccccc34)NC(=O)[C@H](CCO)NC(=O)[C@@H](CCN)NC2=O)[C@@H](C)O)CCNC(=O)[C@H]([C@@H](C)O)NC(=O)[C@H](CCN)NC(=O)[C@H](CCN)NC1=O [Ex. 77] (I: [pGlu]CY[Dab]E[dDab][hSer]WS[Tle]C[Thr(ol)] / II: [Dab]T[Dab][Dab][Dab][dL]L[Dab][Dab]T; disulfide I:2-I:11; amide I:5-II:N; lactam II:4-II:C) | 0.25 µg/mL (≈ 0.104 µM) |  |  |  |  | 0.25 µg/mL (≈ 0.104 µM) | 0.25 µg/mL (≈ 0.104 µM) | 0.25 µg/mL (≈ 0.104 µM) | <1% | 0.125 µg/mL (≈ 0.0518 µM) | 0.125 µg/mL (≈ 0.0518 µM) | 0.125 µg/mL (≈ 0.0518 µM) | 0.125 µg/mL (≈ 0.0518 µM)
CC(=O)N[C@H](C(=O)N[C@H]1CSSC[C@@H](C(=O)N[C@@H](CO)C(N)=O)NC(=O)[C@H](C(C)C)NC(=O)[C@H](CO)NC(=O)[C@H](Cc2c[nH]c3ccccc23)NC(=O)[C@H](CCN)NC(=O)[C@@H](CCN)NC(=O)[C@H](CCC(=O)N[C@@H](CCN)C(=O)N[C@H](C(=O)N[C@@H](CCN)C(=O)N[C@H]2CCNC(=O)[C@H]([C@@H](C)O)NC(=O)[C@H](CCN)NC(=O)[C@H](CCN)NC(=O)[C@H](CC(C)C)NC(=O)[C@@H](CC(C)C)NC(=O)[C@H](CCN)NC2=O)[C@@H](C)O)NC(=O)[C@H](CO)NC(=O)[C@H](Cc2ccc(O)cc2)NC1=O)C(C)C [Ex. 272] (I: Ac-VCYSE[dDab][Dab]WSVCS-NH2 / II: [Dab]T[Dab][Dab][Dab][dL]L[Dab][Dab]T; disulfide I:2-I:11; amide I:5-II:N; lactam II:4-II:C) | 0.25 µg/mL (≈ 0.104 µM) |  |  |  |  | 0.0625 µg/mL (≈ 0.0259 µM) | 0.125 µg/mL (≈ 0.0518 µM) | 0.125 µg/mL (≈ 0.0518 µM) | <1% | 0.0625 µg/mL (≈ 0.0259 µM) | 0.125 µg/mL (≈ 0.0518 µM) | 0.0625 µg/mL (≈ 0.0259 µM) | 0.0625 µg/mL (≈ 0.0259 µM)
CC(=O)N[C@H](C(=O)N[C@H]1CCCNC(=O)[C@@H]([C@H](C)O)NC(=O)[C@H](C(C)C)NC(=O)[C@H](CO)NC(=O)[C@H](Cc2c[nH]c3ccccc23)NC(=O)[C@H](CCN)NC(=O)[C@@H](CCN)NC(=O)[C@H](CCC(=O)N[C@@H](CCN)C(=O)N[C@H](C(=O)N[C@@H](CN)C(=O)N[C@H]2CCNC(=O)[C@H]([C@@H](C)O)NC(=O)[C@H](CCN)NC(=O)[C@H](CCN)NC(=O)[C@H](CC(C)C)NC(=O)[C@@H](CC(C)C)NC(=O)[C@H](CCN)NC2=O)[C@@H](C)O)NC(=O)[C@H](CN)NC(=O)[C@H](Cc2ccc(O)cc2)NC1=O)C(C)C [Ex. 37] (I: Ac-V[Orn]Y[Dap]E[dDab][Dab]WSV[dT] / II: [Dab]T[Dap][Dab][Dab][dL]L[Dab][Dab]T; lactam I:2-I:C, II:4-II:C; amide I:5-II:N) | 0.25 µg/mL (≈ 0.108 µM) |  |  |  |  | 1 µg/mL (≈ 0.434 µM) | 2 µg/mL (≈ 0.868 µM) | 0.5 µg/mL (≈ 0.217 µM) | 1% | 0.125 µg/mL (≈ 0.0542 µM) | 0.5 µg/mL (≈ 0.217 µM) | 0.25 µg/mL (≈ 0.108 µM) | 0.25 µg/mL (≈ 0.108 µM)
CC(=O)N[C@H](C(=O)N[C@H](C(=O)N[C@@H](Cc1ccc(O)cc1)C(=O)N[C@H]1CSSC[C@@H](C(=O)N[C@H](C(=O)N[C@@H](C)C(=O)N[C@H](C(N)=O)[C@@H](C)O)C(C)(C)C)NC(=O)[C@H](Cc2c[nH]c3ccccc23)NC(=O)[C@H](CO)NC(=O)[C@@H](CCN)NC(=O)[C@H](CCC(=O)N[C@@H](CCN)C(=O)N[C@H](C(=O)N[C@@H](CN)C(=O)N[C@H]2CCNC(=O)[C@H]([C@@H](C)O)NC(=O)[C@H](CCN)NC(=O)[C@H](CCN)NC(=O)[C@H](CC(C)C)NC(=O)[C@@H](CC(C)C)NC(=O)[C@H](CCN)NC2=O)[C@@H](C)O)NC1=O)[C@@H](C)O)C(C)C [Ex. 220] (I: Ac-VTYCE[dDab]SWC[Tle]AT-NH2 / II: [Dab]T[Dap][Dab][Dab][dL]L[Dab][Dab]T; disulfide I:4-I:9; amide I:5-II:N; lactam II:4-II:C) | 0.125 µg/mL (≈ 0.0518 µM) |  |  |  |  | 0.0625 µg/mL (≈ 0.0259 µM) | 0.125 µg/mL (≈ 0.0518 µM) | 0.125 µg/mL (≈ 0.0518 µM) | <1% | 0.03125 µg/mL (≈ 0.013 µM) | 0.125 µg/mL (≈ 0.0518 µM) | 0.03125 µg/mL (≈ 0.013 µM) | 0.0625 µg/mL (≈ 0.0259 µM)
